Key:
calcium = experiment: Antagonism against calcium: inhibition of KCl-induced contraction of rat aorta ring specimens (Magnus tube, Test Example 1); design: species or system Male Wistar rats; settings: inhibits 50% of the maximum contraction by KCl (10-60 mM); rat aorta rings, 37 °C; read-out: 50% inhibitory concentration
Procedure: Male Wistar rats (300-350g) were exsanguinated to death and submitted to thoracotomy to take off aortae. Ring specimens having a width of 3 to 4 mm were prepared from the aortae. The specimen was suspended in a Magnus tube which was filled with Krebs Henseleit liquid of 37°±0.5° C., aerated with a mixing gas (95% of O2 and 5% of CO2) flowing in the liquid. A load of approximately 2 g was given to the specimen, and a tension variation was isometrically recorded.

vertebral artery = experiment: Variation of vertebral artery blood flow amount in anesthetized dogs (Test Example 2); assay type: in vivo, crossbred adult dogs; settings: i.v.
Procedure: After female and male crossbred adult dogs were put under anesthesia by using pentobarbital-Na, a cannula for blood pressure measuring and a cannula for drug dosing were set to the femoral artery and the femoral vein, respectively. The blood flow was measured using a probe fixed to the vertebral artery.

IC50 (calcium) [nM]	Compound	further results
220	OC(CNc1ccccc1)CN1CCN(CCCC(c2ccc(F)cc2)c2ccc(F)cc2)CC1 (stereo not drawn) [Compound 6, 1-[4,4-Bis(4-fluorophenyl)butyl]-4-(2-hydroxy-3-phenylaminopropyl)piperazine]	
1300	COc1ccc(SCC(O)CN2CCN(C(c3ccc(F)cc3)c3ccc(F)cc3)CC2)cc1 (stereo not drawn) [Compound 55, 1-[Bis (4-fluorophenyl)methyl]-4-[2-hydroxy-3-(4-methoxyphenylthio)propyl]piperazine]	
280	COc1cccc(SCC(O)CN2CCN(CCCC(c3ccc(F)cc3)c3ccc(F)cc3)CC2)c1 (stereo not drawn) [Compound 43, 1-[4,4-Bis(4-fluorophenyl)butyl]-4-[2-hydroxy-3-(3-methoxyphenylthio)propyl]piperazine]	Variation of the blood flow amount (vertebral artery; 10 μg/kg): 7%; Variation of the blood flow amount (vertebral artery; 30 μg/kg): 15%; Variation of the blood flow amount (vertebral artery; 100 μg/kg): 55%; Variation of the blood flow amount (vertebral artery; 300 μg/kg): 131%
100	O[C@H](CSc1ccccc1)CN1CCN(CCCC(c2ccc(F)cc2)c2ccc(F)cc2)CC1 [Compound 16, (S)-(-)-1-[4,4-Bis(4-fluorophenyl)butyl]-4-(2-hydroxy-3-phenylthiopropyl)piperazine]	
1400	OC(CSCc1ccccc1)CN1CCN(C(c2ccc(F)cc2)c2ccc(F)cc2)CC1 (stereo not drawn) [Compound 24, 1-[Bis(4-fluorophenyl)methyl]-4-(2-hydroxy-3-phenylmethylthiopropyl)piperazine]	
1100	OC(CSc1ccc(Cl)cc1)CN1CCN(CCCC(c2ccc(F)cc2)c2ccc(F)cc2)CC1 (stereo not drawn) [Compound 31, 1-[4,4-Bis(4-fluorophenyl)butyl]-4-[3-(4-chlorophenylthio)-2-hydroxyproply]piperazine]	
200	COC(CSc1ccccc1)CN1CCN(CCCC(c2ccc(F)cc2)c2ccc(F)cc2)CC1 (stereo not drawn) [Compound 12, 1-[4,4-Bis(4-fluorophenyl)butyl]-4-(2-methoxy-3-phenylthiopropyl)piperazine.2HCl]	
1300	OC(CNCCc1ccccc1)CN1CCN(C(c2ccccc2)c2ccccc2)CC1 (stereo not drawn) [Compound 3, 1-Diphenylmethyl-4-[2-hydroxy-3-(2-phenylethylamino)propyl]piperazine]	
430	COc1ccc(SCC(O)CN2CCN(CCCC(c3ccc(F)cc3)c3ccc(F)cc3)CC2)cc1 (stereo not drawn) [Compound 41, 1-[4,4-Bis(4-fluorophenyl)butyl]-4-[2-hydroxy-3-(4-methoxyphenylthio)propyl]piperazine]	Variation of the blood flow amount (vertebral artery; 10 μg/kg): 12%; Variation of the blood flow amount (vertebral artery; 30 μg/kg): 25%; Variation of the blood flow amount (vertebral artery; 100 μg/kg): 66%; Variation of the blood flow amount (vertebral artery; 300 μg/kg): 87%
130	O[C@@H](CSc1ccccc1)CN1CCN(CCCC(c2ccc(F)cc2)c2ccc(F)cc2)CC1 [Compound 18, (R)-(+)-1-[4,4-Bis(4-fluorophenyl)butyl]-4-(2-hydroxy-3-phenylthiopropyl)piperazine]	
340	OC(CSc1cccc2ccccc12)CN1CCN(CCCC(c2ccc(F)cc2)c2ccc(F)cc2)CC1 (stereo not drawn) [Compound 57, 1-[4,4-Bis(4-fluorophenyl)butyl]-4-[2-hydroxy-3-(1-naphthylthio)propyl]piperazine]	
110	OC(CSCc1ccccc1)CN1CCN(CCCC(c2ccc(F)cc2)c2ccc(F)cc2)CC1 (stereo not drawn) [Compound 28, 1-[4,4-Bis(4-fluorophenyl)butyl]-4-(2-hydroxy-3-phenylmethylthiopropyl)piperazine]	
1200	COc1ccc(CCNCC(O)CN2CCN(C(c3ccccc3)c3ccccc3)CC2)cc1OC (stereo not drawn) [Compound 5, 1-[3-{2-(3,4-Dimethoxyphenyl)ethylamino}-2-hydroxypropyl]-4-diphenylmethylpiperazine]	
690	OC(CSc1ccccc1)CN1CCN(CC(c2ccccc2)c2ccccc2)CC1 (stereo not drawn) [Compound 47, 1-(2,2-Diphenylethyl)-4-(2-hydroxy-3-phenylthiopropyl)piperazine]	
270	Cc1ccc(SCC(O)CN2CCN(CCCC(c3ccc(F)cc3)c3ccc(F)cc3)CC2)cc1 (stereo not drawn) [Compound 20, 1-[4,4-Bis(4-fluorophenyl)butyl]-4-[2-hydroxy-3-(4methylphenylthio)propyl]piperazine]	
160	OC(CSc1ccccc1)CN1CCN(CCCC(c2ccc(F)cc2)c2ccc(F)cc2)CC1 (stereo not drawn) [Compound 10, 1-[4,4-Bis(4-fluorophenyl)butyl]-4-(2-hydroxy-3-phenylthiopropyl)piperazine.2HCl]	Variation of the blood flow amount (vertebral artery; 10 μg/kg): 18%; Variation of the blood flow amount (vertebral artery; 30 μg/kg): 14%; Variation of the blood flow amount (vertebral artery; 100 μg/kg): 80%; Variation of the blood flow amount (vertebral artery; 300 μg/kg): 125%
	Fc1ccc(C(c2ccc(F)cc2)N2CCN(C/C=C/c3ccccc3)CC2)cc1 [Furnarizine, furnarizine, reference compound]	Variation of the blood flow amount (vertebral artery; 30 μg/kg): 8%; Variation of the blood flow amount (vertebral artery; 100 μg/kg): 27%; Variation of the blood flow amount (vertebral artery; 300 μg/kg): 44%; Variation of the blood flow amount (vertebral artery; 1000 μg/kg): 55%
140	OC(CSc1ccccc1)CN1CCN(CCCC(c2ccccc2)c2ccccc2)CC1 (stereo not drawn) [Compound 51, 1-(4,4-Diphenylbutyl)-4-(2-hydroxy-3-phenylthiopropyl)piperazine]	
1100	COc1ccccc1SCC(O)CN1CCN(C(c2ccc(F)cc2)c2ccc(F)cc2)CC1 (stereo not drawn) [Compound 45, 1-[Bis(4-fluorophenyl)methyl]-4-[2-hydroxy-3-(2methoxyphenylthio)propyl]piperazine]	
1200	OC(CSc1ccccc1)CN1CCN(C(c2ccc(F)cc2)c2ccc(F)cc2)CC1 (stereo not drawn) [Compound 53, 1-[Bis(4-fluorophenyl)methyl]-4-(2-hydroxy-3-phenylthiopropyl)piperazine]	
140	OC(CSc1ccc(F)cc1)CN1CCN(CCCC(c2ccc(F)cc2)c2ccc(F)cc2)CC1 (stereo not drawn) [Compound 37, 1-[4,4-Bis(4-fluorophenyl)butyl]-4-[3-(4-fluorophenylthio)-2-hydroxypropyl]piperazine]	
160	COc1ccccc1SCC(O)CN1CCN(CCCC(c2ccc(F)cc2)c2ccc(F)cc2)CC1 (stereo not drawn) [Compound 35, 1-[4,4-Bis(4-fluorophenyl)butyl]-4-[2-hydroxy-3-(2-methoxyphenylthio)propyl]piperazine]	Variation of the blood flow amount (vertebral artery; 10 μg/kg): 13%; Variation of the blood flow amount (vertebral artery; 30 μg/kg): 26%; Variation of the blood flow amount (vertebral artery; 100 μg/kg): 66%; Variation of the blood flow amount (vertebral artery; 300 μg/kg): 87%
1300	COc1ccccc1CCNCC(O)CN1CCN(C(c2ccccc2)c2ccccc2)CC1 (stereo not drawn) [Compound 4, 1-Diphenylmethyl-4-[2-hydroxy-3-{2-(2-methoxyphenyl)ethylamino}propyl]piperazine]	
340	Oc1ccc(SCC(O)CN2CCN(CCCC(c3ccc(F)cc3)c3ccc(F)cc3)CC2)cc1 (stereo not drawn) [Compound 39, 1-[4,4-Bis(4-fluorophenyl)butyl]-4-[2-hydroxy-3-(4-hydroxyphenylthio)propyl]piperazine]	
630	Nc1ccc(SCC(O)CN2CCN(CCCC(c3ccc(F)cc3)c3ccc(F)cc3)CC2)cc1 (stereo not drawn) [Compound 22, 1-[(4-Aminophenylthio)-2-hydroxypropyl]-4-[4,4bis(4-fluorophenyl)butyl]piperazine]	

Compound	IC50 (calcium) [nM]	further results
CC(=O)OC(CSc1ccccc1)CN1CCN(CCCC(c2ccc(F)cc2)c2ccc(F)cc2)CC1 (stereo not drawn) [Compound 14, 1-(2-Acetoxy-3-phenylthiopropyl)-4-[4,4-bis(4-fluorophenyl)butyl]piperazine.2HCl]	280	
